Drawing on ChEMBL document CHEMBL3507680, “University of Dundee, Gates Library screen for HepG2 cell viability”, this text covers cytotoxicity for 71 molecules.

Structures are written as SMILES.

This series in a line: Human HepG2 cell viability assay in 384 well format. It is filed as toxicity, cell-based. Set-up: dose 125 nL, time 70.5 hour; concentration not given beside the values. To be noted: HepG2 cells, read-out: Inhibition.
Consider `CC(C)CC(C)NC1CCN(c2ccc(-c3cscn3)cc2)CC1` (stereo unspecified), for which the cytotoxicity at 70.5 h is -15.5%. `COc1cc(F)ccc1N(C)Cc1cccnc1`: the cytotoxicity at 70.5 h was 15.7%.

`CN(C)CC(=O)N1Cc2cc(N(C)C)ccc2C1c1cnco1` (stereo unspecified): the cytotoxicity at 70.5 h was -12.7%. Regarding `Cc1ccc(CN(C)C(=O)CN2CCCC(Cn3cncn3)C2)o1` (stereo unspecified), the cytotoxicity at 70.5 h was -5.76%. For the molecule `Cc1nccn1-c1cc(CNC(=O)CCS(=O)(=O)C2CCCC2)ccn1`, the cytotoxicity at 70.5 h was 10.7%. For `Cc1nn(C(=O)c2cccnc2)c(C)c1C`, the cytotoxicity at 70.5 h worked out at 27.4%.

On to `COc1cc(N2CCN(Cc3ccc(C)o3)C(CCO)C2)nc(N)n1` (stereo unspecified), for which the cytotoxicity at 70.5 h was -4.16%. Regarding `CN(C)Cc1cnc2n1CCN(C(=O)Cc1ccc(F)cc1)CC2`, the cytotoxicity at 70.5 h was -1.54%.

For `COc1ccc(CNC(C)c2ccccc2Cl)c(OC)c1OC` (stereo unspecified), the cytotoxicity at 70.5 h was 18.3%. For `O=C(Cc1ccccn1)N1CCN2C[C@H](Oc3cncnc3)C[C@H]2C1`, the cytotoxicity at 70.5 h was -7.37%. `Cc1noc(C)c1CCC(=O)N1CCCC(n2ccnc2C)C1` (stereo unspecified): the cytotoxicity at 70.5 h is 3.81%.

Consider `CC(C)(C)c1ncc2c(n1)CN(C(=O)c1ccc(-n3cnnn3)cc1)C2`, for which the cytotoxicity at 70.5 h is -3.62%. For `COC(=O)c1ccc(Cl)c(CN(C)Cc2ncnn2C)c1`, the cytotoxicity at 70.5 h was 1.01%.

In the case of `CC1c2ncc(COc3cccnc3)n2CCN1C(=O)C1=CCCC1` (stereo unspecified), the cytotoxicity at 70.5 h was -9.18%. Consider `O=C(CN1CCC(c2nnc(C(F)(F)F)o2)CC1)Nc1cccc(Cl)c1`, for which the cytotoxicity at 70.5 h came to 19.3%. Regarding `Cc1ccc(NC2CCN(C(=O)CCc3c(C)noc3C)CC2)nn1`, the cytotoxicity at 70.5 h is -11.1%. Turning to `COc1cnc(CSc2nnc(C)s2)cc1OCC(=O)NC1CCCC1`, the cytotoxicity at 70.5 h stood at 2.36%. Turning to `Cc1ncsc1C(=O)N1CCC(c2ncncc2-c2ccnc(N)c2)C1` (stereo unspecified), the cytotoxicity at 70.5 h is -7%. Regarding `CC(C)CN1CCC(NC(C)c2ccccc2-n2cccn2)CC1` (stereo unspecified), the cytotoxicity at 70.5 h is -3.22%.

In the case of `COc1ccc(Oc2cccc(C#N)n2)cc1CN1CCCC1`, the cytotoxicity at 70.5 h was -1.4%.

`CCN(CCn1cccn1)Cc1nc(-c2ccc(F)cc2)oc1C`: the cytotoxicity at 70.5 h was -6.91%. As for `CCN(C)c1ncnc2c1CCN(Cc1ccoc1)CC2`, the cytotoxicity at 70.5 h was -20.5%. In the case of `CNc1ncc(CN(C)C(=O)c2cccc(-n3cnnc3)c2)cn1`, the cytotoxicity at 70.5 h was determined as 11.7%.

On to `Cn1c(NCCN2CCCCCC2)c(C#N)c(=O)n(C)c1=O`, for which the cytotoxicity at 70.5 h was -7.25%. As to `Cn1ccc(C(=O)NC2CCC23CCN(Cc2nccs2)CC3)c1` (stereo unspecified), the cytotoxicity at 70.5 h was -4.21%. As for `CC(NCc1ccsc1)c1ccc(OCc2nccn2C)cc1` (stereo unspecified), the cytotoxicity at 70.5 h is -3.28%.

For `CC(=O)N1CCC(NC(=O)Cc2csc(C(C)(C)C)n2)CC1`, the cytotoxicity at 70.5 h was -6.85%. Take `CC(C)c1cc(N[C@@H](CO)C(N)=O)n2nccc2n1`: the cytotoxicity at 70.5 h is 31.2%. Turning to `O=C1CN(C(=O)C2CCOCC2)CCN1Cc1ccc(Cl)cc1`, the cytotoxicity at 70.5 h stood at 0.576%. As for `Cc1ccc(-c2csc3c(=O)[nH]c(N4CCCC(C(N)=O)C4)nc23)cc1` (stereo unspecified), the cytotoxicity at 70.5 h amounted to 1.04%. `c1ccc(CNc2ccccc2N2CCCC2)nc1`: the cytotoxicity at 70.5 h was -18.2%. Regarding `CSc1ccc(-n2nnc(C(=O)O)c2-c2ccccn2)cc1`, the cytotoxicity at 70.5 h was found to be 11.2%. As for `Cc1csc(NC(=O)[C@@H]2C[C@H]3[C@H](CCN3S(C)(=O)=O)O2)n1`, the cytotoxicity at 70.5 h is -1.16%. Regarding `Cn1c(C(=O)Nc2nc[nH]n2)cc2ccccc21`, the cytotoxicity at 70.5 h worked out at 10.4%. Take `CC(C)N(Cc1ccccn1)C(=O)CCC(=O)c1ccc(F)cc1F`: the cytotoxicity at 70.5 h is -14.3%.

For `CC1(C)CNC(=O)CN(C(=O)Cc2ccccc2)C1`, the cytotoxicity at 70.5 h was found to be 0.101%. With `CCN(CC)S(=O)(=O)c1ccc(CCC(=O)NCc2cc(C)on2)cc1`, the cytotoxicity at 70.5 h is -7.82%. Turning to `CN(Cc1cccs1)C(=O)CN1CCCC(Cn2cncn2)C1` (stereo unspecified), the cytotoxicity at 70.5 h is -5.28%. In the case of `Cn1nc(C(=O)N2CCOCC2)cc1C(=O)Nc1ccc(Cl)cc1Cl`, the cytotoxicity at 70.5 h is -2.86%. With `COc1ccc(CCNCc2ccco2)cc1OC` the figure was -6.05%; with `O=C(C[C@@H]1COC[C@H]2CN(C3CCCC3)C[C@@H]12)N1CCCCO1`, -0.83%. With `CS(=O)(=O)N1CCC(C(=O)NC(Cc2ccsc2)c2ccccn2)CC1` (stereo unspecified), the cytotoxicity at 70.5 h was -3.67%. With `Cc1ccc(S(N)(=O)=O)cc1C(=O)NC1CCCN(C)C1` (stereo unspecified), the cytotoxicity at 70.5 h turned out to be 1.47%. For the molecule `COc1cccc([C@H]2CN(C(=O)c3cc(C)on3)C[C@@H]2N)c1`, the cytotoxicity at 70.5 h is -10.9%. The figure for `COCCN(Cc1sccc1C)C(=O)C1CCN(C(C)C)CC1` is -2.9%. `O=C(O)[C@@H]1CN(C(=O)NCC2CCCCC2)C[C@H]1c1ccccn1`: the cytotoxicity at 70.5 h was -2.76%. On to `CC(NC(=O)Nc1nnc(-c2ccccn2)s1)C(=O)OC(C)(C)C` (stereo unspecified), for which the cytotoxicity at 70.5 h is -11.7%.

Consider `COCC(=O)N1CCCC(C(=O)N(C)CCCc2cnn(C)c2)C1` (stereo unspecified), for which the cytotoxicity at 70.5 h stood at 1%. In the case of `Cc1nn(C)c(C)c1-c1ccc(=O)n(C(C)C(=O)NC2CC2)n1` (stereo unspecified), the cytotoxicity at 70.5 h was found to be 17.4%. With `COc1ccnc(NC(=O)c2cscc2C)c1`, the cytotoxicity at 70.5 h was -2.28%. Regarding `C[C@@H]1CN(c2cccnn2)CC[C@@]1(O)C1CCOCC1`, the cytotoxicity at 70.5 h is -4.49%.

As for `CC(=O)Nc1c(C)cnn1Cc1cc(F)ccc1F`, the cytotoxicity at 70.5 h is -2.07%. On to `CN(C)c1cc(CNC(=O)c2ccc(O)nc2)ccn1`, for which the cytotoxicity at 70.5 h amounted to 14.5%. Regarding `Cc1cccn2cc(CNS(=O)(=O)N3CCOCC3)nc12`, the cytotoxicity at 70.5 h is -5.24%.

Take `CCS(=O)(=O)N1CCc2ccc(NC(=O)Nc3cccc(C)c3)cc21`: the cytotoxicity at 70.5 h came to 17.9%. With `COc1ccc(CN2CCCN(C(=O)C(C)n3ccnc3)CC2)cc1` (stereo unspecified) the figure was -4.32%. `C1CN(c2nc3c(c(NC4CC4)n2)CN(CC2CCOC2)CC3)CCO1` (stereo unspecified): the cytotoxicity at 70.5 h was -9.83%.

In the case of `COc1ccccc1CC(=O)N(CCN1CCOCC1)Cc1ccco1`, the cytotoxicity at 70.5 h is -1.43%. As for `O=C(NC[C@@]1(COc2cnccn2)C[C@@H](O)[C@@H](O)C1)C1CC1`, the cytotoxicity at 70.5 h worked out at 15%. For the molecule `Cn1cc(S(=O)(=O)NCCc2nnc3ccccn23)cn1`, the cytotoxicity at 70.5 h is -4.25%. Regarding `COc1cccn(Cc2nnc(-c3cccc(F)c3)o2)c1=O`, the cytotoxicity at 70.5 h is -3.37%.

Take `CC(C)Cc1nc(CN2CCC(N3CCN(C)C3=O)CC2)no1`: the cytotoxicity at 70.5 h is -1.18%.

In the case of `O=C(CCn1cc(Cl)cn1)N1C[C@@H]2CC[C@H](C1)N(Cc1ccccn1)C2`, the cytotoxicity at 70.5 h was -11.7%. With `CNC(=O)Cc1ccc(NC(=O)NCC(C)c2ncc(C)s2)cc1` (stereo unspecified) the figure was -12.5%. `CCN(CCO)C(=O)c1cc(Cn2c(C)nc3ccccc32)[nH]n1`: the cytotoxicity at 70.5 h was -9.25%. For `CC(C)C1CN(C(=O)c2ccccc2)CCS1` (stereo unspecified), the cytotoxicity at 70.5 h is 2.34%. Turning to `N#Cc1c(N)nc2c(c1C1CCOC1)CCc1cc(O)ccc1-2` (stereo unspecified), the cytotoxicity at 70.5 h was -11.5%. For `CCc1nsc(N2CCn3c(nnc3C(F)(F)F)C2)n1`, the cytotoxicity at 70.5 h amounted to 2.89%. On to `Cc1ccc(C2CCCCCN2Cc2cn(C)nc2C)cc1` (stereo unspecified), for which the cytotoxicity at 70.5 h is -12.1%. For `O=C(CCCc1ccc(Cl)cc1)N1CCC(c2nnc[nH]2)CC1`, the cytotoxicity at 70.5 h was -2.6%. With `CCn1cc(CN2CCCC(COc3ccc(F)cc3)C2)cn1` (stereo unspecified) the figure was 12.1%.
